# Earlier results, collected in patent US12653874B2, “Nant cancer vaccine” (NantCell, Inc., priority 2016, dated 2026).
# Legend:
# advanced melanoma = conditions: unresectable or advanced melanoma, result in words
# [1] = patients receiving treatment (Conroy 2011)
compound,measurement,setting,value
CC(C)(C)c1nc(-c2cccc(NS(=O)(=O)c3c(F)cccc3F)c2F)c(-c2ccnc(N)n2)s1 [Dabrafenib],PFS,advanced melanoma,improvement in PFS when compared to dacarbazine
FOLFIRINOX,median OS,pancreatic cancer; [1],11.1 months
same,median PFS,pancreatic cancer; [1],6.4 months
same,OS and PFS versus gemcitabine monotherapy,pancreatic cancer; result in words,improves OS and PFS over monotherapy with gemcitabine
rituximab: anti-CD20 antibody,response rate to single agent retreatment,"CD20-positive NHL; rituximab refractory (RR) patients, reasonable estimate, trial data not reported",< 5%
same,patients responding to retreatment,CD20-positive NHL; rituximab sensitive (RS) patients,approximately 40%
